Data published in PubChem BioAssay (NCI).
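Each compound was tested at five concentrations against cells in 96-well plates for 48 hours. Definition used: TGI = concentration required for complete inhibition of growth.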

What was measured:
Assay in all cases: DTP human tumour cell line panel, 48 h
HOP-62 NSCLC = system: HOP-62 NSCLC
MOLT-4 leukemia = system: MOLT-4 leukemia
CCRF-CEM leukemia = system: CCRF-CEM leukemia
NCI-H226 lung = system: NCI-H226 lung
SNB-75 CNS = system: SNB-75 CNS
SK-MEL-28 melanoma = system: SK-MEL-28 melanoma
LOX IMVI melanoma = system: LOX IMVI melanoma
MDA-MB-435 = system: MDA-MB-435
K-562 leukemia = system: K-562 leukemia
OVCAR-5 ovarian = system: OVCAR-5 ovarian

SMILES | TGI (HOP-62 NSCLC) [µM] | TGI (MOLT-4 leukemia) [µM] | TGI (CCRF-CEM leukemia) [µM] | TGI (NCI-H226 lung) [µM] | TGI (SNB-75 CNS) [µM] | TGI (SK-MEL-28 melanoma) [µM] | TGI (LOX IMVI melanoma) [µM] | TGI (MDA-MB-435) [µM] | TGI (K-562 leukemia) [µM] | TGI (OVCAR-5 ovarian) [µM]
Cc1cc2ncn(CC(=O)O)c2cc1C | > 100 | > 100 | > 100 | > 100 | > 100 | > 100 | > 100 | > 100 | > 100 | > 100
CCOC(CBr)OC1C(=O)OCC1(C)C (stereo not given) | > 100 | > 100 | > 100 | > 100 | > 100 | > 100 | > 100 | > 100 | > 100 | > 100
CC(O)C(CO)NC(=O)C1CSSCC(NC(=O)C(N)Cc2ccccc2)C(=O)NC(Cc2ccccc2)C(=O)NC(Cc2c[nH]c3ccccc23)C(=O)NC(CCCCN)C(=O)NC(C(C)O)C(=O)N1 (stereo not given) | > 100 | > 100 | > 100 | > 100 | > 100 | > 100 | > 100 | > 100 | > 100 | > 100
O=C(CCCc1cccc2[nH]c3c(c12)CN(Cc1ccccc1)CC3)c1ccc(F)cc1 | > 52.6 | > 100 | > 100 | > 100 | > 100 | > 100 | > 100 | > 100 | > 100 | > 100
Nc1cc(C2CCCc3c2[nH]c2ccccc32)ccc1O (stereo not given) | > 100 | 91.2 | > 100 | > 100 | > 100 | > 100 | 71.2 | 33.2 | > 100 | > 100
COc1cc2c(cc1OC)C(CCN)=NCC2 | > 57.4 | 43 | 5.12 | > 64.4 | 33 | 33.2 | 36.7 | 31.4 | 43.3 | > 57.8
